# Tests used:
# Test in all cases: relative viability (nuclei count vs DMSO), 5 days (fraction); higher = more cells survive
# [1] = compound: CC1CC(=O)N(C2=CN=C(N=C2N1C3CCCC3)NC4=C(C=C(C=C4)C(=O)NC5CCN(CC5)C)OC)C [NPK76-II-72-1] + O=C(CCCCCCC(=O)Nc1ccccc1)NO [Vorinostat] (partner 1 µM)
# How it was run: (§1)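 Relative viability equals treated-well nuclei counts divided by vehicle-well nuclei counts. Counts came from 4× images of lung cancer cell lines grown in 1536-well plates for 5 days after pin-tool dosing on the day after seeding. Dosing used one drug alone or a fixed anchor-drug dose plus five library-drug doses (not always all listed) in √10 steps, and values are medians of duplicate plates.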
# [2] = compound: CC1CC(=O)N(C2=CN=C(N=C2N1C3CCCC3)NC4=C(C=C(C=C4)C(=O)NC5CCN(CC5)C)OC)C [NPK76-II-72-1] + Nc1ncn([C@H]2C[C@H](O)[C@@H](CO)O2)c(=O)n1 [Decitabine] (partner 2 µM)
# How it was run: as §1
# [3] = compound: CC[C@@H]1C(=O)N(C)c2cnc(Nc3ccc(C(=O)NC4CCN(C)CC4)cc3OC)nc2N1C1CCCC1 [BI-2536]
# How it was run: (§2)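 After an overnight hold at 37 °C, lung cancer cell lines in 1536-well plates were pinned with five library-drug doses (not always all listed), each √10 from the next, on vehicle-anchored plates. The cells stayed 5 days without fresh medium, then a one-step fix, permeabilisation and Hoechst stain preceded 4× imaging and MetaXpress nuclear counts. A plate passed only with control CV under 25% and at least one doubling. Viability is the median, over plates, of treated-well nuclei relative to vehicle-well nuclei.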
# [4] = compound: CC1CC(=O)N(C2=CN=C(N=C2N1C3CCCC3)NC4=C(C=C(C=C4)C(=O)NC5CCN(CC5)C)OC)C [NPK76-II-72-1]
# How it was run: as §2
cell line,measurement,setting,value
UMC-11,relative viability,[1]; first compound 0.01 µM,0.358
same,relative viability,[1]; first compound 0.03162 µM,0.365
same,relative viability,[1]; first compound 0.1 µM,0.334
same,relative viability,[1]; first compound 0.3162 µM,0.392
same,relative viability,[1]; first compound 1 µM,0.309
same,relative viability,[2]; first compound 0.01 µM,0.617
same,relative viability,[2]; first compound 0.03162 µM,0.57
same,relative viability,[2]; first compound 0.1 µM,0.683
same,relative viability,[2]; first compound 0.3162 µM,0.505
same,relative viability,[2]; first compound 1 µM,0.736
same,relative viability,[3]; 0.01 µM,0.923
same,relative viability,[3]; 0.03162 µM,0.624
same,relative viability,[3]; 0.1 µM,0.175
same,relative viability,[3]; 0.3162 µM,0.205
same,relative viability,[3]; 1 µM,0.2
same,relative viability,[4]; 0.01 µM,0.93
same,relative viability,[4]; 0.03162 µM,0.95
same,relative viability,[4]; 0.1 µM,1.01
same,relative viability,[4]; 0.3162 µM,0.909
same,relative viability,[4]; 1 µM,0.931
